# Data taken from article PMC6447882, “Pharmacokinetics and Biodistribution of Pegylated Methotrexate after IV Administration to Mice” (Iranian Journal of Pharmaceutical Research : IJPR, 2018).
# Where “and” joins values, the source holds several entries; their conditions need not be identical. Equal values may be shown once. Entries after “also recorded” stand apart in the source; their conditions may differ. Read-outs that look alike come from different tables or passages of the source.
# What was measured:
# [1] = set-up: method as in PMID 18346806, PMID 12506184; conditions: drug linked to PEG40000 vs free drug; cited from earlier work
# [2] = set-up: method as in PMID 18346806, PMID 12506184; conditions: conjugation to PEG5000; cited from earlier work
# [3] = set-up: method as in earlier work; conditions: cited from earlier work
# [4] = Biodistribution (tissue distribution) after IV injection to mice; assay type: in vivo; conditions: iv 70 mg/kg
# Protocol: For preparation of MTX tissue samples, one volume of tissue homogenate in normal saline was mixed with two volume acetonitrile and centrifuged in 12000 rpm for 5 min. The supernatant was removed and evaporated to dryness under nitrogen gas. The residue was reconstituted in 250 μL mobile phase and was injected to HPLC. For preparation of MTX-PEG5000 tissue samples, one volume of tissue homogenate in normal saline was mixed with two volumes of dichloromethane and shaked for 15 min. After centrifugation (5000 rpm), the lower organic phase was aspirated and dehydrated by Na2SO4 and after dissolving in 200 μL mobile phase, was injected to HPLC. The standard solutions were prepared in triplicate at concentration levels ranging from of 1 to 50 µg/mL for MTX and 2.5 to 500 µg/mL for MTX-PEG5000.
# The same HPLC instrument was utilized for analysis of MTX and MTX-PEG tissue samples. The precision and accuracy of the method were examined by adding known amounts of MTX (0. 25, 2.5 and 10 µg/mL) and MTX-PEG5000 (5, 50 and 500 µg/mL) to pool tissue (quality control) samples. The other steps were performed as plasma samples.
# IV bolous injections of MTX and MTX-PEG5000 (70 mg/kg) were administered to mice through marginal veins by insulin syringe (gauge 27). At least three mice were sacrificed at each time point. The animals (n = 200) at dosing were in the range of 2-4 weeks of age and their mean weight was 20 ± 5 g. The blood samples were collected at 5, 10, 15, 30, 45, 60, 90, and 120 min intervals for MTX and for at 5, 10, 15, 30, 45, 60, 90, 120, 180, 240, 300, and 360 min intervals for MTX-PEG5000. At each time point, the blood samples were collected from at least three mice and after centrifuging (10000 rpm, for 5 min), the plasma samples were separated and immediately frozen at -20 °C. Then, the mice were cervically dislocated and their organs including heart, liver, spleen, kidney, lung, brain, and small intestine were removed and after washing with normal saline, were dried by facial tissue and exactly weighed. […]
# [5] = relatively alkaline pH of plasma; no reference given; cited from earlier work
# plasma proteins = conditions: cited from earlier work
# [6] = set-up: method as in PMID 18346806; conditions: cited from earlier work
# in vivo = conditions: mice; for half-life: iv
# Protocol: A portion of 500 μL acetonitrile was added to a mixture of 225 μL plasma and 25 μL MTX or MTX-PEG5000 solution (100 µg/mL) and vortexed. Precipitated proteins were separated by centrifuging the mixture at 12000 rpm for 5 min. The supernatant was evaporated by a Multi-Evaporator (VLM EC 1, Italy) at 50 °C using nitrogen gas. The residue was dissolved in 150 μL mobile phase and injected to HPLC. The standards were prepared in triplicate at eight concentrations ranging from 0.25 to 100 µg/mL for MTX and from 1 to 1000 µg/mL for MTX-PEG5000.
# A Knauer HPLC system consisted of a wellchrom pump k-1001, equipped with k-2701, DAD k-2700 detector was used. Chromatography was performed on a PerfectSilTarget® 100 HPLC Column (C8, 150 × 4.6 mm, 5 µm). For analysis of MTX, mobile phase consisted of phosphate-citrate buffer (pH 5): acetonitrile (88:12, v/v) and was delivered isocratically at a flow rate of 1 mL/min.
# The column eluent was monitored using UV detector at the wavelength of 302 nm. For analysis of MTX-PEG5000, the mobile phase consisted of phosphate-citrate buffer (pH 5): acetonitrile (55:45, v/v) and was delivered isocratically at a flow rate of 0.5 mL/min. The column eluent was monitored using UV detector at the wavelength of 342 nm.
# IV bolous injections of MTX and MTX-PEG5000 (70 mg/kg) were administered to mice through marginal veins by insulin syringe (gauge 27). At least three mice were sacrificed at each time point. The animals (n = 200) at dosing were in the range of 2-4 weeks of age and their mean weight was 20 ± 5 g. The blood samples were collected at 5, 10, 15, 30, 45, 60, 90, and 120 min intervals for MTX and for at 5, 10, 15, 30, 45, 60, 90, 120, 180, 240, 300, and 360 min intervals for MTX-PEG5000. At each time point, the blood samples were collected from at least three mice and after centrifuging (10000 rpm, for 5 min), the plasma samples were separated and immediately frozen at -20 °C. Then, the mice were cervically dislocated and their organs including heart, liver, spleen, kidney, lung, brain, and small intestine were removed and after washing with normal saline, were dried by facial tissue and exactly weighed. Whole removed organs and 0.25 to 0.5 g of liver and small intestine were minced and homogenized in a certain volume of normal saline using homogenizer IKA basic T25 (Germany). The organs were collected from MTX injected animals (10, 60 and 120 min for all organs and 5, 10, 30, 60 and 120 for liver tissue) and at 2, 6, 12, 24, and 48 h for mice administered by MTX-PEG5000.
# The logarithm of plasma concentrations of MTX and MTX-PEG5000 were plotted vs. time. […] The pharmacokinetic parameters were obtained by fitting data to two-compartmental model equation (C = Ae^-αt + Be^-βt) and noncompartmental model using Excel 2010 (33).
# [7] = iv 70 mg/kg, two-compartmental model, n = 3
# [8] = iv 70 mg/kg, two-compartmental model, n = 3, 70 mg/kg
smiles,measurement,setting,value
CC[C@@]1(O)C(=O)OCc2c1cc1n(c2=O)Cc2cc3ccccc3nc2-1 [Campthotecin],T1/2 β,[1],1320 min
Nc1ccn([C@@H]2O[C@H](CO)[C@@H](O)C2(F)F)c(=O)n1 [Gemcitabine],AUC,[2],118.55 µg·min/mL
same,T1/2 α,[2],59.4 min
same,T1/2 β,[2],673.8 min
same,clearance,[2],0.654 mL/min
"CN(Cc1cnc2nc(N)nc(N)c2n1)c1ccc(C(=O)N[C@@H](CCC(=O)O)C(=O)O)cc1 [MTX, Methotrexate]",Plasma half-life,[3],90 to 210 min
same,Time after injection up to which measurable in tissues,[4],≤ 2 h
same,"Accumulation in organs (liver, intestine)",[4]; 70 mg/kg,accumulated in liver immediately after its distribution phase (10 min) and then redistributed to small intestine (60 min); also recorded: high and fast accumulation in liver
same,Presence in the brain,[4]; brain,no detectable amount of drug was found in the brain
same,logP,[5],-1.4
same,Protein binding,plasma proteins,30-50%
same,Portion of the drug bound to plasma proteins,plasma proteins; no reference given,50%
same,Solubility in aqueous solution,[6]; pH4,0.08 mg/mL
same,Solubility in aqueous solution,[6]; pH8,58.17 mg/mL
same,AUMC,"in vivo; iv 70 mg/kg, n = 3",24.63 ± 2.84 mg.mL-.min2
same,Vc,"in vivo; iv 70 mg/kg, n = 3",94.025 ± 6.814 mL
same,AUC,"in vivo; iv 70 mg/kg, n = 3, 70 mg/kg",2.64 mg·min/mL and 2.642 mg·min/mL and 2.642 ± 0.190 mg·min/mL
same,K10,in vivo; [7],0.236 ± 0.043 min⁻¹
same,K12,in vivo; [7],0.050 ± 0.020 min⁻¹
same,K21,in vivo; [7],0.036 ± 0.002 min⁻¹
same,"T1/2a (distribution half-life, T1/2 α)",in vivo; [8],2.445 ± 0.549 min
same,"T1/2b (elimination half-life, T1/2 β)",in vivo; [8],24.328 ± 0.657 min
same,half-life,"in vivo; mouse, plasma, 70 mg/kg, two-compartmental model, n = 3, read-out: T1/2a (distribution half-life, T1/2 α)",2.45 min
same,half-life,"in vivo; mouse, plasma, 70 mg/kg, two-compartmental model, n = 3, read-out: T1/2b (elimination half-life, T1/2 β)",24.3 min
same,clearance,"in vivo; mouse, plasma, iv 70 mg/kg, n = 3, read-out: CLs (systemic clearance)",22.4 ± 5.46 mL/min
same,MRT,"in vivo; mouse, plasma, iv 70 mg/kg, noncompartmental model, n = 3, read-out: MRT (mean residence time) (converted)",9.3 min
